Where a SMILES comes first, the peptide text is derived from it.
Test: HPTS assay of ionophoric activity in phospholipid vesicles
Assay type: biochemical
Conditions: Table S1, HPTS assay
Procedure: The membrane activity of 1, 2, Cu[1]Cl2 and Cu[2]Cl2 was assessed in phospholipid vesicle membranes using 8-hydroxypyrene-1,3,6-trisulfonate (HPTS) assays. HPTS assays can show ionophoric activity that occurs via any combination of M^+/H^+ antiport, X^–/OH^– antiport, M^+/OH^– symport and X^–/H^+ symport.
The HPTS assays of 1, 2, Cu[1]Cl2 and Cu[2]Cl2 used 1 : 4 cholesterol : egg yolk phosphatidylcholine (EYPC) vesicles in MOPS buffer (pH 7.4) with 100 mM of an appropriate salt (e.g. KCl, KBr, NaCl), following previously reported procedures.[16] The resulting normalised data were fitted to pseudo first-order rate equations as an approximation (see the ESI ^†).[32] Although the change in fluorescence after the “burst phase” is likely to arise from multiple processes, including inter-vesicle transfer of foldamers,[33] this fitting allows the relative effectiveness of each compound to be compared.
CuCl2 was added at 2 min, followed by addition of 2.2 eq. EDTA at 3 min.
5.1 Preparation of large unilamellar vesicles for HPTS assays
The HPTS assays of 1, 2, Cu[1]Cl2 and Cu[2]Cl2 used 1:4 cholesterol:egg yolk phosphatidylcholine (EYPC) vesicles in MOPS buffer (pH 7.4) with 100 mM of an appropriate salt (e.g. KCl, KBr, NaCl).5 Aliquots of 1, 2, Cu[1]Cl2 or Cu[2]Cl2 dissolved in methanol were mixed with the vesicle suspensions for 60 s before adding a base pulse to change the external pH to 8.4.6 The resulting change in HPTS fluorescence was followed for 6 min, then Triton X-100 was added at 7 min to lyse the vesicles […]. Each assay was repeated three times on new vesicles. The resulting normalized data were fitted to pseudo first-order rate equations as an approximation (see the ESI), similar to the procedure of Regen and co-workers.7 Although the change in fluorescence after the “burst phase” is likely to arise from multiple processes, including inter-vesicle transfer of foldamers,8 this fitting allows the relative effectiveness of each compound to be compared.
Egg yolk phosphatidylcholine (EYPC, 64 μmol) and cholesterol (16 μmol) were dissolved in 2 mL chloroform (spectroscopic grade). The solvent was removed under reduced pressure resulting in a thin film of lipid on the inside wall of the round bottom flask, which was dried further under vacuum for 2 hours. 1.2 mL of a trisodium 8-hydroxypyrene-1,3,6-trisulfonate (HPTS, 100 mM, pH = 7.4) dye in (3-(N-morpholino) propanesulfonic acid) buffer (20 mM MOPS, 100 mM MX (M = K or Na, X = Cl, Br or NO3− adjusted to pH 7.4 using NaOH) were added to the lipid film. Afterwards, the thin film was detached from the sides of the flask by vortex mixing. The resulting lipid suspension was then extruded 19 times through an 800 nm polycarbonate membrane in an Avestin Liposofast extruder to give a suspension of 800 nm large unilamellar vesicles. Unencapsulated HPTS dye was removed by gel permeation chromatography on PD-10 SEC columns (Sephadex G-25). Hereby 1 mL of the 800 nm vesicle suspension was diluted to 2.5 mL with 20 mM MOPS buffer solution and loaded onto the GPC column. The suspension run onto the column, followed by 3.5 mL of 20 mM MOPS buffer, which were collected, giving a stock vesicle solution of 3.5 mL (final concentration of lipids = 15.23 mM). This solution of vesicles was used directly in the HPTS experiments.
5.2 Procedure for HPTS assays
100 μL of the vesicle stock solution was diluted to 2 mL with 20 mM MOPS buffer (final lipid concentration in cuvette 0.762 mM). To this vesicle suspension was then added 20 μL of the principle compound in methanol (1 mM or 0.6 mM for Cu[2]Cl2) and the cuvette was equipped with a stirrer bar. The cuvette was […]

CC(C)(NC(=O)C(C)(C)NC(=O)C(C)(C)NC(=O)C(C)(C)NC(=O)C(C)(C)n1cc(CN(Cc2ccccn2)Cc2ccccn2)nn1)C(=O)NC(C)(C)C(=O)NC(C)(C)C(=O)NC(C)(C)C(=O)OCC[Si](C)(C)C [foldamer 2] (HELM PEPTIDE1{[CC(C)(C(=O)[*:2])n1cc(CN(Cc2ccccn2)Cc2ccccn2)nn1].[Aib].[Aib].[Aib].[Aib].[Aib].[Aib].[Aib].[C[Si](C)(C)CCO[*:1]]}$$$$V2.0)
Apparent observed rate constant kobs, KBr (100 mM KBr, compound 10 µM): 4.0 10−3 s−1
Apparent observed rate constant kobs, KCl (100 mM KCl, compound 10 µM): 3.3 10−3 s−1
Apparent observed rate constant kobs, KNO3 (100 mM KNO3, compound 10 µM): 3.2 10−3 s−1
Apparent observed rate constant kobs, NaCl (100 mM NaCl, compound 10 µM, methanol control 1 × 10−3 s−1): 4.6 10−3 s−1

— publication PMC7481839, “Switchable foldamer ion channels with antibacterial activity” (Chemical Science, 2020)
